# Calls of active or inactive are those of the source. No cut-off for these calls is given here.
# Experiments:
# [1] = Acute toxicity in mouse assessed as mortality rate at 200 mg/kg, ip by karber method; type: organism-based; settings: in vivo, read-out: Activity
# Staphylococcus aureus [2] = experiment: Synergistic antibacterial activity against methicillin resistant Staphylococcus aureus 113 assessed as fractional inhibitory concentration index incubated for 18 hrs in presence of kanamycin by checkerboard assay; type: functional
# Staphylococcus aureus [3] = experiment: Additive antibacterial activity against methicillin resistant Staphylococcus aureus 113 assessed as fractional inhibitory concentration index incubated for 18 hrs in presence of cefotaxime by checkerboard assay; type: functional
# Escherichia coli [4] = experiment: Additive antibacterial activity against Escherichia coli assessed as fractional inhibitory concentration index incubated for 18 hrs in presence of kanamycin by checkerboard assay; type: functional
# Staphylococcus aureus [5] = experiment: Additive antibacterial activity against methicillin resistant Staphylococcus aureus 75 assessed as fractional inhibitory concentration index incubated for 18 hrs in presence of gentamycin by checkerboard assay; type: functional
# Staphylococcus aureus [6] = experiment: Additive antibacterial activity against methicillin resistant Staphylococcus aureus 75 assessed as fractional inhibitory concentration index incubated for 18 hrs in presence of ciprofloxacin by checkerboard assay; type: functional
# Staphylococcus aureus [7] = experiment: Synergistic antibacterial activity against methicillin resistant Staphylococcus aureus 75 assessed as fractional inhibitory concentration index incubated for 18 hrs in presence of kanamycin by checkerboard assay; type: functional
# Pseudomonas aeruginosa [8] = experiment: Antibacterial activity against Pseudomonas aeruginosa ATCC 27853 incubated for 18 hrs by broth microdilution method; type: functional
# Staphylococcus aureus [9] = experiment: Antibacterial activity against Staphylococcus aureus incubated for 18 hrs in presence of NaCl by broth microdilution method; type: functional, organism-based
# Staphylococcus aureus [10] = experiment: Additive antibacterial activity against methicillin resistant Staphylococcus aureus 113 assessed as fractional inhibitory concentration index incubated for 18 hrs in presence of ciprofloxacin by checkerboard assay; type: functional
# Escherichia coli [11] = experiment: Antibacterial activity against kanamycin resistant Escherichia coli assessed as fractional inhibitory concentration index incubated for 18 hrs in presence of kanamycin by checkerboard assay; type: functional
# [12] = Acute toxicity in mouse assessed as renal cell necrosis at 230.5 mg/kg, ip by H and E staining based assay; type: organism-based; settings: in vivo
# Staphylococcus aureus [13] = experiment: Antibacterial activity against Staphylococcus aureus 794 infected in BALB/c mouse skin wound infection model assessed as wound healing at 1 mg/ml, ip pre-infected with bacteria for 24 hrs followed by compound addition and measured on day 11; type: functional; settings: time 11 day
# [14] = Acute toxicity in mouse assessed as hepatocyte necrosis at 230.5 mg/kg, ip by H and E staining based assay; type: organism-based; settings: hepatocytes
# Cell membrane [15] = experiment: Induction of cytoplasmic membrane depolarization in Staphylococcus aureus at 0.5 times MIC by DiSC3-5 dye based fluorescence method; type: cell membranes
# Staphylococcus aureus [16] = experiment: Additive antibacterial activity against methicillin resistant Staphylococcus aureus 75 assessed as fractional inhibitory concentration index incubated for 18 hrs in presence of streptomycin by checkerboard assay; type: functional
# Staphylococcus aureus [17] = experiment: Synergistic antibacterial activity against methicillin resistant Staphylococcus aureus 113 assessed as fractional inhibitory concentration index incubated for 18 hrs in presence of bacitracin by checkerboard assay; type: functional
# Escherichia coli [18] = experiment: Antibacterial activity against Escherichia coli at 2 times MIC preincubated with 256 ug/ml LPS for 1 hr followed by bacterial addition and measured after 5 hrs; type: functional, organism-based; settings: time 6.0 hrs
# [19] = tested on: Staphylococcus epidermidis; experiment: Bactericidal activity against Staphylococcus epidermidis ATCC 12228 incubated for 18 hrs by broth microdilution method; type: functional
# Cell membrane [20] = experiment: Induction of outer membrane permeabilization in Escherichia coli at 4 times MIC measured immediately by NPN-dye based assay; type: cell membranes
# Staphylococcus aureus [21] = experiment: Additive antibacterial activity against methicillin resistant Staphylococcus aureus 113 assessed as fractional inhibitory concentration index incubated for 18 hrs in presence of streptomycin by checkerboard assay; type: functional
# Staphylococcus aureus [22] = experiment: Additive antibacterial activity against Staphylococcus aureus assessed as fractional inhibitory concentration index incubated for 18 hrs in presence of ciprofloxacin by checkerboard assay; type: functional
# Cell membrane [23] = experiment: Induction of inner membrane permeabilization in Escherichia coli ML-35 […] measured every 5 mins for 120 mins by ONPG dye based assay; type: cell membranes
# Staphylococcus aureus [24] = experiment: Antibacterial activity against Staphylococcus aureus at 2 times MIC preincubated for 1 hr with trypsin followed by enzyme inactivation and bacterial addition and measured after 18 hrs; type: functional; settings: time 19 hrs
# Staphylococcus aureus [25] = experiment: Antibacterial activity against Staphylococcus aureus 794 infected in BALB/c mouse skin wound infection model assessed as reduction in wound bacterial load at 1 mg/ml, ip administered at 1 hr interval for total 6 treatment and measured after 1 hr post last dose; type: functional, organism-based; settings: time 7.0 hrs
# Staphylococcus aureus [26] = experiment: Synergistic antibacterial activity against methicillin resistant Staphylococcus aureus assessed as fractional inhibitory concentration index incubated for 18 hrs in presence of streptomycin by checkerboard assay; type: functional
# Staphylococcus aureus [27] = experiment: Additive antibacterial activity against Staphylococcus aureus 125 assessed as fractional inhibitory concentration index incubated for 18 hrs in presence of cefotaxime by checkerboard assay; type: functional
# Staphylococcus aureus [28] = experiment: Induction of morphological change in Staphylococcus aureus assessed as bacterial collapse at 2 times MIC incubated for 30 mins by SEM analysis; type: functional, organism-based
# Pseudomonas aeruginosa [29] = experiment: Bactericidal activity against Pseudomonas aeruginosa ATCC 27853 incubated for 18 hrs by broth microdilution method; type: functional
# Staphylococcus aureus [30] = experiment: Additive antibacterial activity against Staphylococcus aureus 794 assessed as fractional inhibitory concentration index incubated for 18 hrs in presence of ciprofloxacin by checkerboard assay; type: functional
# Cell membrane [31] = experiment: Induction of cell membrane disruption in Staphylococcus aureus assessed as PI uptake incubated for 2 hrs by PI staining based confocal laser scanning microscopy; type: cell membranes
# Escherichia coli [32] = experiment: Antibacterial activity against kanamycin resistant Escherichia coli assessed as fractional inhibitory concentration index incubated for 18 hrs in presence of streptomycin by checkerboard assay; type: functional
# Pseudomonas aeruginosa [33] = experiment: Antibacterial activity against Pseudomonas aeruginosa incubated for 18 hrs in presence of FeCl3 by broth microdilution method; type: functional, organism-based
# Cell membrane [34] = experiment: Induction of cytoplasmic membrane depolarization in Staphylococcus aureus at 2 to 4 times MIC by DiSC3-5 dye based fluorescence method; type: cell membranes
# Pseudomonas aeruginosa [35] = experiment: Antibacterial activity against Pseudomonas aeruginosa incubated for 18 hrs in presence of MgCl2 by broth microdilution method; type: functional, organism-based
# Staphylococcus aureus [36] = experiment: Antibacterial activity against Staphylococcus aureus incubated for 18 hrs in presence of MgCl2 by broth microdilution method; type: functional, organism-based
# Cell membrane [37] = experiment: Induction of inner membrane permeabilization in Escherichia coli ML-35 at 1/2 times MIC measured every 5 mins for 120 mins by ONPG dye based assay; type: cell membranes
# Escherichia coli [38] = experiment: Antibacterial activity against Escherichia coli incubated for 18 hrs by broth microdilution method; type: functional
# Staphylococcus aureus [39] = experiment: Antibacterial activity against Staphylococcus aureus infected in BALB/c mouse systemic infection model assessed as reduction in lung bacterial load at 5 to 10 mg/kg, ip measured after 8 hrs; type: functional, organism-based; settings: dose 5-10 mg/kg
# Cell membrane [40] = experiment: Induction of cell membrane disruption in Staphylococcus aureus assessed as PI uptake at 4 times MIC incubated for 2 hrs by PI staining based flow cytometry analysis (reference value: 15.9%); type: cell membranes
# Pseudomonas aeruginosa [41] = experiment: Antibacterial activity against Pseudomonas aeruginosa incubated for 18 hrs in presence of KCl by broth microdilution method; type: functional, organism-based
# Staphylococcus aureus [42] = experiment: Additive antibacterial activity against Staphylococcus aureus 794 assessed as fractional inhibitory concentration index incubated for 18 hrs in presence of streptomycin by checkerboard assay; type: functional
smiles,measurement,setting,value
NCCCC[C@@H](NC(=O)[C@H](N)Cc1c[nH]c2ccccc12)C(=O)N[C@H](Cc1c[nH]c2ccccc12)C(=O)N[C@H](CCCCN)C(=O)N[C@H](Cc1c[nH]c2ccccc12)C(=O)N[C@@H](CC(N)=O)C(=O)NCC(=O)N[C@H](Cc1c[nH]c2ccccc12)C(=O)N[C@H](CCCCN)C(=O)N[C@H](Cc1c[nH]c2ccccc12)C(=O)N[C@H](CCCCN)C(=O)N[C@H](Cc1c[nH]c2ccccc12)C(N)=O,mortality,[1],20%
same,fractional inhibitory concentration index (FICI),Staphylococcus aureus [2],0.5
same,fractional inhibitory concentration index (FICI),Staphylococcus aureus [3],0.563
same,fractional inhibitory concentration index (FICI),Escherichia coli [4],0.563
same,fractional inhibitory concentration index (FICI),Staphylococcus aureus [5],0.625
same,fractional inhibitory concentration index (FICI),Staphylococcus aureus [6],0.563
same,fractional inhibitory concentration index (FICI),Staphylococcus aureus [7],0.5
same,MIC,Pseudomonas aeruginosa [8],4 µM
same,Activity,Staphylococcus aureus [9],Active
same,fractional inhibitory concentration index (FICI),Staphylococcus aureus [10],1
same,fractional inhibitory concentration index (FICI),Escherichia coli [11],0.188
same,Activity,[12],Toxic
same,Activity,Staphylococcus aureus [13],100%
same,Activity,[14],Toxic
same,Activity,Cell membrane [15],inactive
same,fractional inhibitory concentration index (FICI),Staphylococcus aureus [16],0.75
same,fractional inhibitory concentration index (FICI),Staphylococcus aureus [17],0.5
same,Activity,Escherichia coli [18],inactive
same,MBC,[19],4 µM
same,Activity,Cell membrane [20],100%
same,fractional inhibitory concentration index (FICI),Staphylococcus aureus [21],0.563
same,fractional inhibitory concentration index (FICI),Staphylococcus aureus [22],1
same,Activity,Cell membrane [23],Dose-Dependent Effect
same,Activity,Staphylococcus aureus [24],100%
same,Activity,Staphylococcus aureus [25],Active
same,fractional inhibitory concentration index (FICI),Staphylococcus aureus [26],0.5
same,fractional inhibitory concentration index (FICI),Staphylococcus aureus [27],0.75
same,Activity,Staphylococcus aureus [28],Active
same,MBC,Pseudomonas aeruginosa [29],32 µM
same,fractional inhibitory concentration index (FICI),Staphylococcus aureus [30],0.563
same,Activity,Cell membrane [31],Dose-Dependent Effect
same,fractional inhibitory concentration index (FICI),Escherichia coli [32],0.188
same,Activity,Pseudomonas aeruginosa [33],Active
same,Activity,Cell membrane [34],Active
same,Activity,Pseudomonas aeruginosa [35],Active
same,Activity,Staphylococcus aureus [36],Active
same,Activity,Cell membrane [37],inactive
same,MIC,Escherichia coli [38],8 µM
same,Activity,Staphylococcus aureus [39],Active
same,Activity,Cell membrane [40],95.5%
same,Activity,Pseudomonas aeruginosa [41],Active
same,fractional inhibitory concentration index (FICI),Staphylococcus aureus [42],0.625

# Source: ChEMBL document CHEMBL5543109, “Novel β-Hairpin Antimicrobial Peptide Containing the β-Turn Sequence of -NG- and the Tryptophan Zippers Facilitate Self-Assembly into Nanofibers, Exhibiting Excellent Antimicrobial Performance” (J Med Chem, 2024)
